Laboratory results as given in patent US10669272B2, “Substituted naphthyridinone compounds useful as T cell activators” (BRISTOL-MYERS SQUIBB COMPANY, priority 2018, dated 2020).
Like-named read-outs stand apart in the source and are kept apart here.

What was measured:
human DGKα = biological target: T1, human DGKα (Homo sapiens, UniProt P23743); test: DGKα LIPGLO assay (extruded liposome substrate), in vitro DGK inhibition; format: biochemical; conditions: read-out: DGKa LIPGLO IC50
T1 construct: TVMV protease cleavage site (C); Hexa-His (C); made in house; host or cells: Sf9 insect cells (baculovirus, Bac-to-Bac)
T1 sequence (P23743 with tags, fused parts or gaps): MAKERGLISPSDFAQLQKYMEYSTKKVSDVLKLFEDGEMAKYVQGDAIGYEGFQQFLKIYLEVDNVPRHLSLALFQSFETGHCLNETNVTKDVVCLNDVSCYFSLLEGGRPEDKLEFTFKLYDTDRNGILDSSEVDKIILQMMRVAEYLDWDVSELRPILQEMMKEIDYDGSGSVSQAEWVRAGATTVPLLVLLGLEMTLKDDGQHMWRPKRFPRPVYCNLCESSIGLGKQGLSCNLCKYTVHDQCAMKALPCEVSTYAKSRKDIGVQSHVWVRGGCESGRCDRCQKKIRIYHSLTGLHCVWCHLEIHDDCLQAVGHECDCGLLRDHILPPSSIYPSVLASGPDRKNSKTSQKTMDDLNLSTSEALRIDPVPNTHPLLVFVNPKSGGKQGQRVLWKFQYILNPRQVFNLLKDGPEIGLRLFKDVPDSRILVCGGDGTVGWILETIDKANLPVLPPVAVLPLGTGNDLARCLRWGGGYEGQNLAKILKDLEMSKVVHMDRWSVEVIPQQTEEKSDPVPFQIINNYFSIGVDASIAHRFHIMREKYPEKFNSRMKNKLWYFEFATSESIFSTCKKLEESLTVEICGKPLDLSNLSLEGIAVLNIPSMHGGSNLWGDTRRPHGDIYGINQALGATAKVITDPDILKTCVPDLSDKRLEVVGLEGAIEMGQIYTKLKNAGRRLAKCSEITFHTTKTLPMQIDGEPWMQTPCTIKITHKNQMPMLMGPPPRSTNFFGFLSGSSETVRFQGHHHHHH

human DGKζ = biological target: T2, human DGKζ (Homo sapiens, UniProt Q13574); test: DGKζ LIPGLO assay (extruded liposome substrate), in vitro DGK inhibition; format: biochemical; conditions: read-out: DGKz LIPGLO IC50
T2 construct: TVMV protease cleavage site (C); Hexa-His (C); made in house; host or cells: Sf9 insect cells (baculovirus, Bac-to-Bac)
T2 sequence (Q13574 with tags, fused parts or gaps isoform Q13574-4): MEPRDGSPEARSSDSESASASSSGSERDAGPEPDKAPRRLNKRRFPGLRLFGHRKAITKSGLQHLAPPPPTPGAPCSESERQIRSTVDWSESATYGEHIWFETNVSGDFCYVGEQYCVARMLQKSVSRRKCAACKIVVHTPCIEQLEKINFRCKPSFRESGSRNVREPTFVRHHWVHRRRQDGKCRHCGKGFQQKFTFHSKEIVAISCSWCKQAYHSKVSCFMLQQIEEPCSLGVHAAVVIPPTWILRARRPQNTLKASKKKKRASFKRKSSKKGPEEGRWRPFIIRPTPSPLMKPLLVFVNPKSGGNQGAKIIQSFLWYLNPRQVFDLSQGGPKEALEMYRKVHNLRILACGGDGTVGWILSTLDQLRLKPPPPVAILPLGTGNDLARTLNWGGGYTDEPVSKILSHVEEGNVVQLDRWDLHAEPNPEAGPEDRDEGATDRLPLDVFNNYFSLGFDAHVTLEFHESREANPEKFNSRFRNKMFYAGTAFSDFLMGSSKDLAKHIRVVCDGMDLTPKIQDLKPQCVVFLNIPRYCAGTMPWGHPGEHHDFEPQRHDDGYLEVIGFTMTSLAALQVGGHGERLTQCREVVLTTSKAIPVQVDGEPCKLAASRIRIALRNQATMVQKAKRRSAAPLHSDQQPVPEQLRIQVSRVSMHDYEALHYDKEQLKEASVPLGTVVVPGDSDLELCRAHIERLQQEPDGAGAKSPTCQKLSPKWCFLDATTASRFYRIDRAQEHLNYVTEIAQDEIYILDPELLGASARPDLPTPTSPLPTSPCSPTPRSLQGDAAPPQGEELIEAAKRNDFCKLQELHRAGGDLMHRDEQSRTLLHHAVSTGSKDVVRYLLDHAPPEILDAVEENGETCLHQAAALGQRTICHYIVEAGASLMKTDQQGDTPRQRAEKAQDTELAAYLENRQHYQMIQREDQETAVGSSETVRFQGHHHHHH

Human venous whole blood = test: Human whole blood IFN-γ assay; format: cell-based; conditions: human whole blood, read-out: INFg Whole Blood Normalized Agonist EC50;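 also: blood from healthy donors exposed to compound for 1 h before stimulation with anti-CD3 and anti-CD28 at 1 µg/mL each, IFN-γ quantified in supernatant by AlphaLISA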
Description: Human Whole Blood IFN-γ Assay
Human venous whole blood (22.5 μL per well), obtained from healthy donors, was pre-treated with compounds for one hour at 37° C. in a humidified 95% air/5% CO2 incubator. The blood was stimulated with 2.5 μL anti-human CD3 and anti-CD28 mAb at a final concentration of 1 μg/mL each for 24 hours at 37° C. IFN-γ in the supernatants was measured using AlphLISA kit (Cat # AL217).

[1] = anti-CD3 plus anti-CD28, 24 hours, 3 μM reference compound = 100% activation
[2] = Homo sapiens, 24 h, normalized to 3 μM reference compound with anti-CD3 plus anti-CD28 as 100% activation
[3] = Homo sapiens, 24 h, anti-CD3 plus anti-CD28, 24 hours, 3 μM reference compound = 100% activation
[4] = normalized to 3 μM reference compound with anti-CD3 plus anti-CD28 as 100% activation

C[C@@H]1CN(c2cc(=O)n(C)c3ccc(C#N)nc23)[C@@H](C)CN1C(c1ccc(F)cc1)c1nc(C2CC2)nn1C (single isomer, unassigned) [Example 768]
IC50 (human DGKα; DGKα liposome (LIPGLO) assay): 14000 nM
IC50 (human DGKζ; DGKζ liposome (LIPGLO) assay): 3200 nM
EC50 (Human venous whole blood; [1]): 1800 nM

Cc1oncc1CN1C[C@H](C)N(c2cc(=O)n(C)c3ccc(C#N)nc23)C[C@H]1C [Example 1431]
IC50 (human DGKα; liposome (LIPGLO) assay): 59000 nM
IC50 (human DGKζ; liposome (LIPGLO) assay): 12000 nM
EC50 (Human venous whole blood; [2]): 13000 nM

Cc1cccc(C(c2ccc(F)cc2)N2CCN(c3c(C#N)c(=O)n(C)c4ccc(C#N)nc34)C[C@H]2C)n1 (single isomer, unassigned) [Example 905]
IC50 (human DGKα; DGKα liposome (LIPGLO) assay): 4600 nM
IC50 (human DGKζ; DGKζ liposome (LIPGLO) assay): 1200 nM
EC50 (Human venous whole blood; [3]): 1300 nM

COc1cc(F)c(CN2C[C@H](C)N(c3cc(=O)n(C)c4ccc(C#N)nc34)C[C@H]2C)c(F)c1 [Example 1276]
IC50 (human DGKα; liposome (LIPGLO) assay): 71 nM
IC50 (human DGKζ; liposome (LIPGLO) assay): 240 nM
EC50 (Human venous whole blood; [2]): 490 nM

C[C@@H]1CN(c2c(C#N)c(=O)n(C)c3ccc(C#N)nc23)[C@@H](C)CN1C(c1ccc(F)cc1)c1ccon1 (single isomer, unassigned) [Example 850]
IC50 (human DGKα; DGKα liposome (LIPGLO) assay): 510 nM
IC50 (human DGKζ; DGKζ liposome (LIPGLO) assay): 5400 nM
EC50 (Human venous whole blood; [1]): 3600 nM

CC(c1c(F)cccc1F)N1C[C@H](C)N(c2c(C#N)c(=O)n(C)c3ccc(C#N)nc23)C[C@H]1C (single isomer, unassigned) [Example 781]
IC50 (human DGKα; DGKα liposome (LIPGLO) assay): 74 nM
IC50 (human DGKζ; DGKζ liposome (LIPGLO) assay): 120 nM
EC50 (Human venous whole blood; [3]): 830 nM

C[C@@H]1CN(c2cc(=O)n(C)c3ccc(C#N)nc23)[C@@H](C)CN1C(c1ccccc1)c1ccc(Cl)cc1 (single isomer, unassigned) [Example 670]
IC50 (human DGKα; liposome (LIPGLO) assay): 1100 nM
IC50 (human DGKζ; liposome (LIPGLO) assay): 3600 nM
EC50 (Human venous whole blood; [4]): 2800 nM

Cc1ccc(C(c2ccc(F)cc2Cl)N2C[C@H](C)N(c3c(C#N)c(=O)n(C)c4ccc(C#N)nc34)C[C@H]2C)nc1 (stereo partly drawn) [Example 831]
IC50 (human DGKα; DGKα liposome (LIPGLO) assay): 42000 nM
IC50 (human DGKζ; DGKζ liposome (LIPGLO) assay): 6500 nM
EC50 (Human venous whole blood; [3]): 2500 nM

Cc1ccc(C(c2ccc(Cl)cc2)N2C[C@H](C)N(c3cc(=O)n(C)c4ccc(C#N)nc34)C[C@H]2C)nc1 (single isomer, unassigned) [Example 365]
IC50 (human DGKα; liposome (LIPGLO) assay): 270 nM
IC50 (human DGKζ; liposome (LIPGLO) assay): 770 nM
EC50 (Human venous whole blood; [4]): 360 nM

CCC(c1ccc(OC(C)C)cc1)N1C[C@H](C)N(c2cc(=O)n(C)c3ccc(C#N)nc23)C[C@H]1CC (single isomer, unassigned) [Example 1447]
IC50 (human DGKα; liposome (LIPGLO) assay): 280 nM
IC50 (human DGKζ; liposome (LIPGLO) assay): 24 nM
EC50 (Human venous whole blood; [4]): 50 nM

C[C@@H]1CN(c2cc(=O)n(C)c3ccc(C#N)nc23)[C@@H](C)CN1C(c1ccc(F)cn1)c1cccc2c1OC(C)(C)C2 (single isomer, unassigned) [Example 465]
IC50 (human DGKα; liposome (LIPGLO) assay): 200 nM
IC50 (human DGKζ; liposome (LIPGLO) assay): 980 nM
EC50 (Human venous whole blood; [2]): 20000 nM

C[C@@H]1CN(c2cc(=O)n(C)c3ccc(C#N)nc23)[C@@H](C)CN1C(CO)c1ccc(C(F)(F)F)cn1 (single isomer, unassigned) [Example 1280]
IC50 (human DGKα; liposome (LIPGLO) assay): 1300 nM
IC50 (human DGKζ; liposome (LIPGLO) assay): 8500 nM
EC50 (Human venous whole blood; [2]): 9900 nM

C[C@@H]1CN(c2cc(=O)n(C)c3ccc(C#N)nc23)[C@@H](C)CN1C(c1ccc(F)cc1)c1cnn2ccccc12 (single isomer, unassigned) [Example 699]
IC50 (human DGKα; liposome (LIPGLO) assay): 47000 nM
IC50 (human DGKζ; liposome (LIPGLO) assay): 2100 nM
EC50 (Human venous whole blood; [4]): 980 nM

Cc1ccc(C(c2ccc(C)c(Cl)c2)N2C[C@H](C)N(c3cc(=O)n(C)c4ccc(C#N)nc34)C[C@H]2C)nc1 (stereo partly drawn) [Example 399, 8-((2S,5R)-4-((3-chloro-4-methylphenyl)(5-methylpyridin-2-yl)methyl)-2,5-dimethylpiperazin-1-yl)-5-methyl-6-oxo-5,6-dihydro-1,5-naphthyridine-2-carbonitrile]
IC50 (human DGKα; liposome (LIPGLO) assay): 2300 nM
IC50 (human DGKζ; liposome (LIPGLO) assay): 690 nM
EC50 (Human venous whole blood; [4]): 570 nM

C[C@@H]1CN(c2c(C#N)c(=O)n(C)c3ccc(C#N)nc23)CCN1C(c1ccc(F)cc1)c1ccc(C(F)(F)F)cc1 (single isomer, unassigned) [Example 914]
IC50 (human DGKα; DGKα liposome (LIPGLO) assay): 1300 nM
IC50 (human DGKζ; DGKζ liposome (LIPGLO) assay): 1500 nM
EC50 (Human venous whole blood; [1]): 1900 nM

CC(c1c(F)cccc1F)N1CCN(c2c(C#N)c(=O)n(C)c3ccc(C#N)nc23)C[C@H]1C (single isomer, unassigned) [Example 951]
IC50 (human DGKα; DGKα liposome (LIPGLO) assay): 3700 nM
IC50 (human DGKζ; DGKζ liposome (LIPGLO) assay): 9800 nM
EC50 (Human venous whole blood; [1]): 20000 nM

C[C@@H]1CN(c2cc(=O)n(C)c3ccc(C#N)nc23)[C@@H](C)CN1CC1CCOCC1 [Example 623]
IC50 (human DGKα; liposome (LIPGLO) assay): 130000 nM
IC50 (human DGKζ; liposome (LIPGLO) assay): > 250000 nM
EC50 (Human venous whole blood; [2]): 20000 nM

C[C@H]1CN(C(c2ccc(F)cc2)c2ccc(F)cc2)[C@H](CN2CC(O)C2)CN1c1cc(=O)n(C)c2ccc(C#N)nc12 [Example 1168]
IC50 (human DGKα; liposome (LIPGLO) assay): 83000 nM
IC50 (human DGKζ; liposome (LIPGLO) assay): 60000 nM
EC50 (Human venous whole blood; [2]): 20000 nM

CC[C@H]1CN(C(c2ccc(F)cc2)c2cccc(C(F)(F)F)n2)[C@H](CC)CN1c1cc(=O)n(C)c2ccc(C#N)nc12 (single isomer, unassigned) [Example 1046]
IC50 (human DGKα; liposome (LIPGLO) assay): 90 nM
IC50 (human DGKζ; liposome (LIPGLO) assay): 54 nM
EC50 (Human venous whole blood; [4]): 140 nM

C[C@@H]1CN(c2cc(=O)n(C)c3ccc(C#N)nc23)[C@@H](C)CN1C(c1ccc(F)cc1)c1cccc(S(C)(=O)=O)c1 (single isomer, unassigned) [Example 688]
IC50 (human DGKα; liposome (LIPGLO) assay): 83000 nM
IC50 (human DGKζ; liposome (LIPGLO) assay): 24000 nM
EC50 (Human venous whole blood; [4]): 13000 nM

CC(c1ccc(C2(C#N)CC2)cc1F)N1C[C@H](C)N(c2cc(=O)n(C)c3ccc(C#N)nc23)C[C@H]1C (single isomer, unassigned) [Example 1252]
IC50 (human DGKα; liposome (LIPGLO) assay): 5700 nM
IC50 (human DGKζ; liposome (LIPGLO) assay): 3100 nM
EC50 (Human venous whole blood; [2]): 7700 nM

CC[C@H]1CN(Cc2c(F)cc(F)cc2F)[C@H](C)CN1c1cc(=O)n(C)c2ccc(C#N)nc12 [Example 1148]
IC50 (human DGKα; liposome (LIPGLO) assay): 38 nM
IC50 (human DGKζ; liposome (LIPGLO) assay): 160 nM
EC50 (Human venous whole blood; [2]): 1200 nM

C[C@@H]1CN(c2c(C#N)c(=O)n(C)c3ccc(C#N)nc23)CCN1Cc1ccc(F)cc1Cl [Example 993]
IC50 (human DGKα; DGKα liposome (LIPGLO) assay): 1300 nM
IC50 (human DGKζ; DGKζ liposome (LIPGLO) assay): 3900 nM
EC50 (Human venous whole blood; [3]): 3800 nM

COC(=O)C1CN(c2cc(=O)n(C)c3ccc(C#N)nc23)CCN1C(c1ccc(F)cc1)c1ccc(F)cc1OC (single isomer, unassigned) [Example 70, Methyl 4-(6-cyano-1-methyl-2-oxo-1,2-dihydro-1,5-naphthyridin-4-yl)-1-((4-fluoro-2-methoxyphenyl)(4-fluorophenyl)methyl)piperazine-2-carboxylate]
IC50 (human DGKα; liposome (LIPGLO) assay): 220000 nM
IC50 (human DGKζ; liposome (LIPGLO) assay): 19000 nM
EC50 (Human venous whole blood; [4]): 10000 nM

CC(c1ccc(F)cc1F)N1CCN(c2c(C#N)c(=O)n(C)c3ccc(C#N)nc23)C[C@H]1C (single isomer, unassigned) [Example 969]
IC50 (human DGKα; DGKα liposome (LIPGLO) assay): 760 nM
IC50 (human DGKζ; DGKζ liposome (LIPGLO) assay): 1200 nM
EC50 (Human venous whole blood; [1]): 1300 nM

Cc1ccc(C(c2cccc(Cl)c2)N2CCN(c3c(C#N)c(=O)n(C)c4ccc(C#N)nc34)C[C@H]2C)nc1 (single isomer, unassigned) [Example 929]
IC50 (human DGKα; DGKα liposome (LIPGLO) assay): 7700 nM
IC50 (human DGKζ; DGKζ liposome (LIPGLO) assay): 1100 nM
EC50 (Human venous whole blood; [1]): 1300 nM

COC[C@@H]1CN(c2cc(=O)n(C)c3ccc(C#N)nc23)[C@@H](C)CN1C(c1ccc(F)cc1)c1ccc(C#N)cc1 (single isomer, unassigned) [Example 1157]
IC50 (human DGKα; liposome (LIPGLO) assay): 4200 nM
IC50 (human DGKζ; liposome (LIPGLO) assay): 700 nM
EC50 (Human venous whole blood; [2]): 270 nM

CCc1ccccc1C(c1ccc(F)cc1)N1CCN(c2c(C#N)c(=O)n(C)c3ccc(C#N)nc23)C[C@H]1C (stereo partly drawn) [Example 876]
IC50 (human DGKα; DGKα liposome (LIPGLO) assay): 2400 nM
IC50 (human DGKζ; DGKζ liposome (LIPGLO) assay): 510 nM
EC50 (Human venous whole blood; [1]): 2200 nM

C[C@H]1CN(C(c2ccc(F)cc2)c2ccc(F)cc2)[C@H](CN(C)C)CN1c1cc(=O)n(C)c2ccc(C#N)nc12 [Example 1169]
IC50 (human DGKα; liposome (LIPGLO) assay): 39000 nM
IC50 (human DGKζ; liposome (LIPGLO) assay): 6200 nM
EC50 (Human venous whole blood; [2]): 2300 nM

COc1ccc(C(C)N2C[C@H](C)N(c3cc(=O)n(C)c4ccc(C#N)nc34)C[C@H]2C)nc1 (single isomer, unassigned) [Example 645]
IC50 (human DGKα; liposome (LIPGLO) assay): 1900 nM
IC50 (human DGKζ; liposome (LIPGLO) assay): 18000 nM
EC50 (Human venous whole blood; [4]): 17000 nM

COCc1cc(C(C)N2C[C@H](C)N(c3cc(=O)n(C)c4ccc(C#N)nc34)C[C@H]2C)ccc1F (single isomer, unassigned) [Example 1316]
IC50 (human DGKα; liposome (LIPGLO) assay): 1800 nM
IC50 (human DGKζ; liposome (LIPGLO) assay): 18 nM
EC50 (Human venous whole blood; [2]): 4500 nM

CC(c1ccc(OC(C)(C)C)cc1)N1C[C@H](C)N(c2cc(=O)n(C)c3ccc(C#N)nc23)C[C@H]1C (single isomer, unassigned) [Example 1441]
IC50 (human DGKα; liposome (LIPGLO) assay): 20000 nM
IC50 (human DGKζ; liposome (LIPGLO) assay): 4800 nM
EC50 (Human venous whole blood; [4]): 5400 nM
